Results on one molecule are retold here after US12012407B1, “Pyrazolo[1,5-a]pyrido[4,3-e]pyrimidine-3-carboxylic acids as CK2 inhibitors” (KING FAISAL UNIVERSITY, priority 2024, dated 2024).

The structures appear in SMILES notation.

The test system of one assay is HCT116 (colon). Nature of the assay: In vitro cytotoxic activity (MTT) assay, HCT116. The format is cell-based. The note with it: Homo sapiens, HCT-116; HCT116 (colon) cells, exposed for 96 hours; read-out: Cytotoxicity activity IC50 (50% inhibition of cell proliferation). How it is done: (§1) Compounds 1-16 were screened for their in vitro cytotoxic activity utilizing a 3-(4,5-dimethyl-thiazol-2-yl)-2,5-diphenyltetrazolium bromide (MTT) assay against selected cancer human cell lines consisting of PC3 (prostate), HCT116 (colon), A375 (melanoma), H1299 (lung), MIAPaCa-2 (pancreas), HL60 (leukemia), MCF7 (breast), MDA-MB-231 (breast) (T. Mosmann, J. Immunol. Meth., 1983, 65, 55-63). The cells were cultured at 37° C. in RMPI1640 medium supplemented with 10% fetal bovine serum, 50 IU/mL penicillin, and 50 μg/mL streptomycin in a 5% CO2 incubator. All cells were sub-cultured 3 times/week by trypsinisation. Viable cells were seeded and allowed to adhere for 12 hours before a test drug was added in 96-well plates at an initial density of 1.0×10^5 cells/mL. Tumor cell lines were separately exposed to various concentrations of the tested compounds followed by incubation at a temperature of 37° C. during 96 hours inside a medium of fresh RMPI 1640. Cells were subsequently incubated at 37° C. using MTT at 0.5 mg/mL during 4 hours. After removal of supernatant, formazan crystals were dissolved in isopropanol and the optical density was measured at 570 nm. CX-4945 was used as a positive control.

For assay [1], the target named is T1, recombinant human CK2 (RRBB-holoenzyme) (Homo sapiens, UniProt P68400).
T1 construct: purchased Millipore
T1 sequence (P68400 whole entry): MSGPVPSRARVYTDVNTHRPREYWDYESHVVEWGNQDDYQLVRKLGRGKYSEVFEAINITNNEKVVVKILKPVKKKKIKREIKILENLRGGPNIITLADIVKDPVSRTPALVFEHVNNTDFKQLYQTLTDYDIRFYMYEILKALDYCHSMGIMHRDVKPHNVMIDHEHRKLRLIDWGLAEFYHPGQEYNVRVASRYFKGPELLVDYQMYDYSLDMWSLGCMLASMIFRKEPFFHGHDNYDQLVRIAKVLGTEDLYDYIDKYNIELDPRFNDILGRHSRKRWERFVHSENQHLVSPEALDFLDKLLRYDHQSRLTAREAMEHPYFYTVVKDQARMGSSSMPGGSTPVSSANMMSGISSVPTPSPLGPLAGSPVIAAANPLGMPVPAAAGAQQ
T1 sequence (P67870 whole entry partner): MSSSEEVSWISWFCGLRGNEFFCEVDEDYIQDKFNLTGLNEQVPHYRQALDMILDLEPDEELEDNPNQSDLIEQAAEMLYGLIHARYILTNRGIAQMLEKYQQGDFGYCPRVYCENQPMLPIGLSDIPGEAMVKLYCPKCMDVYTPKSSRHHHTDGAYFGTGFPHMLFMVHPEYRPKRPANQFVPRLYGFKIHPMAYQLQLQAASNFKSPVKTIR
The assay can be described thus: CK2 Kinase Assay (33P-ATP, filter plate). The format is biochemical. Particulars: final ATP concentration 15 μM, 10 min at 30° C., eight concentrations; read-out: protein kinase CK2 inhibition IC50. How it is done: CK2 Kinase Assay was conducted using the protocol as described in Pierre F. et al; J. Med. Chem. 2011, 54, 635-654. The tested compounds in aqueous solution were added at a volume of 10 μL to a reaction mixture comprising 10 μL of assay dilution buffer (ADB; 20 mM MOPS, pH 7.2, 25 mM β-glycerol phosphate, 5 mM EGTA, 1 mM sodium orthovanadate, and 1 mM dithiothreitol), 10 μL of substrate peptide (RRRDDDSDDD, dissolved in ADB at a concentration of 1 mM), 10 μL of recombinant human CK2 (RRBB-holoenzyme, 25 ng dissolved in ADB; Millipore). Reactions were initiated by the addition of 10 μL of ATP solution (90% 75 mMMgCl2, 75 μM ATP (final ATP concentration: 15 μM) dissolved in ADB; 10% [Y-33P] ATP (stock 1 mCi/100 μL; 3000 Ci/mmol (Perkin-Elmer) and maintained for 10 min at 30° C. The reactions were quenched with 100 μL of 0.75% phosphoric acid and then transferred to and filtered through a phosphor cellulose filter plate (Millipore). After washing each well five times with 0.75% phosphoric acid, the plate was dried under vacuum for 5 min and, following the addition of 15 μL of scintillation fluid to each well, the residual radioactivity was measured using a Wallac luminescence counter. The IC50 values were derived from eight concentrations of test inhibitors.

For another assay, the system named is PC3 (prostate). The assay can be described thus: In vitro cytotoxic activity (MTT) assay, PC3. Type of assay: cell-based. Particulars: Homo sapiens, Prostate cell; PC3 (prostate) cells, exposed for 96 hours; read-out: Cytotoxicity activity IC50 (50% inhibition of cell proliferation). The method, then:
as §1

A further assay relates to MCF7 (breast). The assay can be described thus: In vitro cytotoxic activity (MTT) assay, MCF7. The format is cell-based. The note with it: Homo sapiens; MCF7 (breast) cells, exposed for 96 hours; read-out: Cytotoxicity activity IC50 (50% inhibition of cell proliferation). How it is done: as §1
The next assay deals with MIAPaCa-2 (pancreas). Nature of the assay: In vitro cytotoxic activity (MTT) assay, MIAPaCa-2. Type of assay: cell-based. Particulars: Homo sapiens, MIA PaCa-2; MIAPaCa-2 (pancreas) cells, exposed for 96 hours; read-out: Cytotoxicity activity IC50 (50% inhibition of cell proliferation). How it is done:
as §1

In another assay the test system is A375 (melanoma). Nature of the assay: In vitro cytotoxic activity (MTT) assay, A375. Particulars: Homo sapiens, A-375; A375 (melanoma) cells, exposed for 96 hours; read-out: Cytotoxicity activity IC50 (50% inhibition of cell proliferation). Type of assay: cell-based. The method, then: as §1
The subject of the next assay is HL60 (leukemia). Nature of the assay: In vitro cytotoxic activity (MTT) assay, HL60. Particulars: Homo sapiens, HL-60; HL60 (leukemia) cells, exposed for 96 hours; read-out: Cytotoxicity activity IC50 (50% inhibition of cell proliferation). The format is cell-based. The method, then:
as §1

In a further assay the test system is H1299 (lung). Nature of the assay: In vitro cytotoxic activity (MTT) assay, H1299. The format is cell-based. Particulars: Homo sapiens, NCI-H1299; H1299 (lung) cells, exposed for 96 hours; read-out: Cytotoxicity activity IC50 (50% inhibition of cell proliferation). How it is done:
as §1

Another assay relates to MDA-MB-231 (breast). Nature of the assay: In vitro cytotoxic activity (MTT) assay, MDA-MB-231. Type of assay: cell-based. Particulars: Homo sapiens; MDA-MB-231 (breast) cells, exposed for 96 hours; read-out: Cytotoxicity activity IC50 (50% inhibition of cell proliferation). How it is done:
as §1

On to `O=C(O)c1cnn2c1nc(Nc1cccc(Cl)c1)c1ccncc12` [Compound 1, 5-((3-chlorophenyl)amino)pyrazolo[1,5-a]pyrido[4,3-e]pyrimidine-3-carboxylic acid], for which the IC50 is 1.9 µM with HCT116 (colon); 0.096 µM in assay [1]; 2.1 µM in the assay on PC3 (prostate); 5.2 µM in the assay on MCF7 (breast); 1.1 µM with MIAPaCa-2 (pancreas); 4.3 µM in the assay with A375 (melanoma). Further, the IC50 worked out at 3.9 µM in the assay with HL60 (leukemia), 1.6 µM in the assay with H1299 (lung) and 4.4 µM with MDA-MB-231 (breast).
